In patent US8088422B2, “Purified pyrroloquinoline quinone fortified food” (Shanghai Medical Life Science Research Center, Ltd., Co., priority 2008, dated 2012):
≈ marks a conversion by molar mass, not a printed value.

How the values were obtained:
Isoelectric point of PQQ = assay type: physicochemical
[1] = tested on: Ampicillin resistant (AmpR) E. coli; assay: OD600 measurement of bacterial growth in LB media with PQQ, Ampicillin resistant E. coli; assay type: cell-based; conditions: for OD600: AmpR, LB media, 37 degree C
Experimental: (§1) In one experiment, Top 10 E. coli and Ampicillin resistant (AmpR) E. coli are selected as bacterial samples. These bacterial samples are cultured separately in LB media in a number of tubes with various purified PQQ concentrations. LB media is prepared as following: Ten gram Bacto-tryptone, 5 g yeast extract and 10 g NaCl are added to 800 ml distilled H2O. The pH of the solution is adjusted to 7.5 with NaOH, and the final volume is adjusted to 1 L with distilled H2O. The LB media is autoclaved and filtered to be sterilized. The PQQ concentration range is prepared between 0 to 100 mg/Liter of LB media in the number of the tubes. The bacterial samples are inoculated into the tubes to the amount of 1×10^5/tube, incubated in 37 degree C. on shaking bench for designated time according to the following experiment designs. It is known that Ampicillin has no effect to the growth of Ampicillin resistant E. coli but can inhibit other bacteria growth. Therefore, the data from the Ampicillin experiment are focused on AmpR E. coli growth. While in the case of Top10 E. coli, other types of bacteria may grow in the culture as well.
(§2) Table 1 and FIG. 1 show OD600 value of samples from Top10 E. coli and Ampicillin resistant E. coli cultured at 6, 8, and 9.5 hours. OD600 is a measurement of the optical density at 600 nm wavelength light of a liquid media. The optical density is related to the amount of particle scattering of light. In this case, a high optical density indicates a large number of bacteria in the cultural sample, and OD600 datas are used in this invention disclosure as indication of numbers of bacteria in the liquid media, which is a standard method to monitor microorganism growth. The OD600 of cultured microorganism in liquid media is measured by photometer, using blank media as blank reference. To convert OD600 to the number of microorganism such as E. coli in the culture media, the converting formula is 1 OD=3.8×10^8. OD600 is a well known technique of monitoring bacterial growth to those of skilled in the art and so is not discussed further here.

DNA = conditions: 10 μM PQQ (3.3 mg/L), dependent on presence of NADH and Cu (II); cited from earlier work
[2] = Solubility of PQQ in water solution; assay type: physicochemical; conditions: 20 °C, aqueous buffer; 20-25 degree C., pH 7.0 water solution
[3] = tested on: bacteria in non-pasteurized cow milk; assay: OD600 of PQQ fortified non-pasteurized cow milk (FIG. 2); assay type: cell-based; conditions: PQQ 0, 0.1, 1, 10 mg/L, after 6 and 9 hour mixing at 37 degree C, then LB culture 24 hours
Experimental: In one embodiment of the present invention, the inhibition effect of purified PQQ to the growth of bacterial is utilized to preserve food products. […] The samples were prepared with purified PQQ concentration level of 0, 0.1, 1, and 10 mg/L. Next, the samples were shaken at 37 degree C. for 3, 6, and 9 hours, and then saved in a refrigerator under 4 degree C. On the next day, liquid culture media LB was added into the samples, followed by the samples cultured in shake flask for the next 24 hours and ready for OD600 test.
FIG. 2 presents the OD600 value as a function of purified PQQ concentration measured from the samples shake flask for 3, 6, and 9 hours.

Top10 E. coli = assay: OD600 measurement of bacterial growth in LB media with PQQ, Top10 E. coli; assay type: cell-based; conditions: 37 degree C
Experimental: as §1, §2

## O=C(O)c1cc(C(=O)O)c2c(n1)C(=O)C(=O)c1cc(C(=O)O)[nH]c1-2 [PQQ, Pyrroloquinoline quinone]
Isoelectric point of PQQ
  isoelectric point: 2.75 pH
[1]; PQQ 0 to 100 mg/Liter of LB media, 6, 8, 9.5 hours
  number of E. coli in AmpR sample (general trend, FIG. 1 and table 1): decreases as the concentration of purified PQQ increases
[1]; PQQ 0.1 mg/L, 6 Hours
  OD600: 0.143
[1]; PQQ 0.1 mg/L, 8 Hours
  OD600: 0.331
[1]; PQQ 0.1 mg/L, 9.5 Hours
  OD600: 0.401
[1]; PQQ 1 mg/L, 6 Hours
  OD600: 0.145
[1]; PQQ 1 mg/L, 8 Hours
  OD600: 0.335
[1]; PQQ 1 mg/L, 9.5 Hours
  OD600: 0.408
[1]; PQQ 25 mg/L, 6 Hours
  OD600: 0.087
[1]; PQQ 25 mg/L, 8 Hours
  OD600: 0.268
[1]; PQQ 25 mg/L, 9.5 Hours
  OD600: 0.356
[1]; PQQ 50 mg/L, 6 Hours
  OD600: 0.052
[1]; PQQ 50 mg/L, 8 Hours
  OD600: 0.169
[1]; PQQ 50 mg/L, 9.5 Hours
  OD600: 0.298
[1]; PQQ 75 mg/L, 6 Hours
  OD600: 0.04
[1]; PQQ 75 mg/L, 8 Hours
  OD600: 0.122
[1]; PQQ 75 mg/L, 9.5 Hours
  OD600: 0.239
[1]; PQQ 100 mg/L, 6 Hours
  OD600: 0.03
[1]; PQQ 100 mg/L, 8 Hours
  OD600: 0.088
[1]; PQQ 100 mg/L, 9.5 Hours
  OD600: 0.192
DNA
  DNA cleavage: induce DNA cleavage at thymine and cytosine residue sites
[2]
  solubility: 1000 to 2000 µg/mL (≈ 3.03 to 6.06 mM)
[3]
  amount of bacteria (OD600, FIG. 2): the amount of bacteria decreases as the purified PQQ concentration increases
Top10 E. coli; PQQ 0.1 mg/L, 6 Hours
  OD600: 0.303
Top10 E. coli; PQQ 0.1 mg/L, 8 Hours
  OD600: 0.416
Top10 E. coli; PQQ 0.1 mg/L, 9.5 Hours
  OD600: 0.451
Top10 E. coli; PQQ 1 mg/L, 6 Hours
  OD600: 0.293
Top10 E. coli; PQQ 1 mg/L, 8 Hours
  OD600: 0.445
Top10 E. coli; PQQ 1 mg/L, 9.5 Hours
  OD600: 0.452
Top10 E. coli; PQQ 25 mg/L, 6 Hours
  OD600: 0.251
Top10 E. coli; PQQ 25 mg/L, 8 Hours
  OD600: 0.433
Top10 E. coli; PQQ 25 mg/L, 9.5 Hours
  OD600: 0.472
Top10 E. coli; PQQ 50 mg/L, 6 Hours
  OD600: 0.208
Top10 E. coli; PQQ 50 mg/L, 8 Hours
  OD600: 0.413
Top10 E. coli; PQQ 50 mg/L, 9.5 Hours
  OD600: 0.457
Top10 E. coli; PQQ 75 mg/L, 6 Hours
  OD600: 0.165
Top10 E. coli; PQQ 75 mg/L, 8 Hours
  OD600: 0.386
Top10 E. coli; PQQ 75 mg/L, 9.5 Hours
  OD600: 0.446
Top10 E. coli; PQQ 100 mg/L, 6 Hours
  OD600: 0.163
Top10 E. coli; PQQ 100 mg/L, 8 Hours
  OD600: 0.378
Top10 E. coli; PQQ 100 mg/L, 9.5 Hours
  OD600: 0.431
